Experimental data taken from the supplement of paper PMC7840683.

Test system: HepaRG
Assay: LDH release cytotoxicity, % of total lysis control; higher = more cytotoxic
Settings: 48 h
Summary of the method: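 Single-lot HepaRG cells in collagen I-coated 96-well plates were treated for 48 h in serum-free induction medium containing 0.5% DMSO with test chemicals in eight-point half-log series up to 100 µM. For total lysis, wells received 0.1% Triton X. LDH in 50 µL spent medium was assayed by resorufin fluorescence with CytoTox-ONE. Percent cytotoxicity was normalized to the on-plate vehicle and total lysis controls, with duplicates averaged.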

Cc1ncc(C(CCCCCCc2ccc3c(n2)NCCC3)CC(=O)O)cn1 (centres undefined)
Settings | LDH release cytotoxicity [%]
0.03162 µM | -1.55
0.1 µM | -1.82
0.3162278 µM | -1.74
1 µM | -2.04
3.16228 µM | -1.49
10 µM | -1.25
31.6228 µM | -1.33
100 µM | 0.986

Clc1cc(Cl)c2c(c1)N=C1CCCCCN1C2
Settings | LDH release cytotoxicity [%]
0.03162 µM | -2.23
0.1 µM | -1.38
0.3162278 µM | -0.748
1 µM | -1.45
3.16228 µM | -1.34
10 µM | 1.41
31.6228 µM | 1.58
100 µM | 3.36

O=C(NS(=O)(=O)C=Cc1cccs1)c1ccc(F)cc1Br
Settings | LDH release cytotoxicity [%]
0.03162 µM | -1.33
0.1 µM | -1.47
0.3162278 µM | -1.39
1 µM | -2.27
3.16228 µM | -1.8
10 µM | -1.418
31.6228 µM | -0.73
100 µM | -0.319

O=C(NS(=O)(=O)C=Cc1ccccc1)c1ccc(F)cc1Cl
Settings | LDH release cytotoxicity [%]
0.03162 µM | -0.138
0.1 µM | -1.32
0.3162278 µM | -0.79
1 µM | -2.23
3.16228 µM | -1.4
10 µM | -0.621
31.6228 µM | -0.552
100 µM | 1.91

O=C(Nc1ccc2[nH]ccc2c1)c1cc2cc(F)ccc2n1Cc1cccc(F)c1
Settings | LDH release cytotoxicity [%]
0.02625 µM | -0.0757
0.083 µM | -0.934
0.262469 µM | -1.53
0.83 µM | -0.536
2.62469 µM | -0.9
8.3 µM | -0.744
26.2469 µM | 8.37
83 µM | 93.9

N#Cc1ccc(N(CC(N)=O)CC(F)(F)F)cc1C(F)(F)F
Settings | LDH release cytotoxicity [%]
0.03162 µM | -0.784
0.1 µM | -0.777
0.3162278 µM | -1.03
1 µM | -1.38
3.16228 µM | -0.891
10 µM | 0.346
31.6228 µM | -0.599
100 µM | -0.34

NC(=O)N(O)C1COc2cc(OCc3ccccc3)ccc21 (centres undefined)
Settings | LDH release cytotoxicity [%]
0.02846 µM | -1.76
0.09 µM | -2.99
0.284605 µM | -1.03
0.9 µM | -2.27
2.84605 µM | -0.514
9 µM | 0.238
28.4605 µM | 3.46
90 µM | 22.46

O=C(N[C@H](c1ccccc1)[C@@H]1CN2CCC1CC2)c1c(Cl)ccc(C(F)(F)F)c1Cl
Settings | LDH release cytotoxicity [%]
0.0292511 µM | -0.907
0.0925 µM | -0.886
0.292511 µM | -1.02
0.925 µM | -1.22
2.9251068 µM | -0.0305
9.25 µM | 1.38
29.251068 µM | 16.1
92.5 µM | 82.5

O=C1c2ccccc2C(=O)N1CCc1noc(-c2ccc(CN3CCCCCC3)s2)n1
Settings | LDH release cytotoxicity [%]
0.026721 µM | 1.83
0.0845 µM | -0.403
0.267212 µM | -0.399
0.845 µM | -0.205
2.67212 µM | -7.752
8.45 µM | 7.6
26.7213 µM | 1.47
84.5 µM | -1.5

O=C(O)c1cccc(N(Cc2cccnc2)c2ccc(OC(F)F)c(OC(F)F)c2)c1
Settings | LDH release cytotoxicity [%]
0.03162 µM | -1.28
0.1 µM | -1.45
0.3162278 µM | -1.1
1 µM | -1.77
3.16228 µM | -1.858
10 µM | -2.03
31.6228 µM | -2.58
100 µM | -1.73

O=C(O)c1cccc(CC2COc3ccc(OCc4nc5cc(F)ccc5s4)cc3C2O)c1 (centres undefined)
Settings | LDH release cytotoxicity [%]
0.03162 µM | -0.0534
0.1 µM | -0.136
0.3162278 µM | -0.338
1 µM | -1.53
3.16228 µM | -0.67
10 µM | -0.7031
31.6228 µM | 0.475
100 µM | 39.6

O=C(O)C1(c2ccc3c(c2)OCC(Cc2ccc(-c4ccccc4)cc2)C3O)CCCC1 (centres undefined)
Settings | LDH release cytotoxicity [%]
0.03162 µM | -0.731
0.1 µM | -0.599
0.3162278 µM | -0.19
1 µM | -0.676
3.16228 µM | -0.648
10 µM | 0.306
31.6228 µM | 2.92
100 µM | 72.9

Oc1ccc2c(c1)OCC(N1CCC(O)(c3ccc(F)cc3)CC1)C2O (centres undefined)
Settings | LDH release cytotoxicity [%]
0.01581 µM | -1
0.05 µM | 0.886
0.1581139 µM | 0.0464
0.5 µM | 0.111
1.5811388 µM | 0.298
5 µM | 0.5713
15.8114 µM | 1.05
50 µM | 0.322

OCC(CO)n1cnc(-c2ccc(F)cc2)c1-c1ccnc(Oc2ccccc2)n1
Settings | LDH release cytotoxicity [%]
0.029093 µM | -1.79
0.092 µM | -1.44
0.29093 µM | -0.719
0.92 µM | -1.96
2.9092954 µM | -2.48
9.2 µM | -2.62
29.093 µM | 0.252
92 µM | 51.2

O=C(O)CCN(C1(C(=O)NO)CCCC1)S(=O)(=O)c1ccc(Oc2ccc(F)cc2)cc1
Settings | LDH release cytotoxicity [%]
0.03162 µM | -0.305
0.1 µM | -1.01
0.3162278 µM | -0.589
1 µM | -0.176
3.16228 µM | -0.0966
10 µM | 0.986
31.6228 µM | 0.193
100 µM | 1.19

O=C(NO)C1(NS(=O)(=O)c2ccc(Oc3ccc(F)cc3)cc2)CCOCC1
Settings | LDH release cytotoxicity [%]
0.03162 µM | 0.225
0.1 µM | -0.912
0.3162278 µM | -0.649
1 µM | -0.54
3.16228 µM | -0.318
10 µM | -0.00829
31.6228 µM | -1.25
100 µM | 10.5

N#CC1CC(F)(F)CN1C(=O)CNC1CC2CCC(C1)N2c1ncccn1 (centres undefined)
Settings | LDH release cytotoxicity [%]
0.03162 µM | -1.64
0.1 µM | -2.99
0.3162278 µM | -2.24
1 µM | -2.72
3.16228 µM | -2.06
10 µM | -1.96
31.6228 µM | -1.33
100 µM | -1.49

O=C(NC1CN2CCC1CC2)c1ccc2c(c1)OCCO2 (centres undefined)
Settings | LDH release cytotoxicity [%]
0.03162 µM | -2.41
0.1 µM | -1.45
0.3162278 µM | -1.86
1 µM | -1.29
3.16228 µM | -1.81
10 µM | -1.38
31.6228 µM | -1.38
100 µM | 0.204
